Results on nine molecules are retold here after patent US9617256B2 (priority 2007, dated 2017).

For assay [1], the system named is AECO001 (ATCC25922). Put plainly: MIC broth microdilution, AECO001. It is filed as cell-based, E. coli. The conditions noted are these: Escherichia coli. The procedure, abridged:
(§1)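 Strains were grown overnight at 35° C. on Mueller-Hinton agar, suspended to 0.5 McFarland and diluted to a final 3×10^5–7×10^5 CFU/mL. They were then exposed to 2-fold serial drug dilutions in cation-adjusted Mueller-Hinton broth and incubated 18-24 hours at 35° C.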
(In general: Broth dilution looks for growth in wells or tubes with falling amounts of substance.)

The test system of assay [2] is AECO063 (ATCC25922 bearing an acrAB mutation). Kind of assay: microbe, parasite or virus in culture. In kind it is cell-based, E. coli. The conditions noted are these: Escherichia coli, ATCC25922, read-out: MIC AECO063. The procedure, abridged: as §1
The subject of assay [3] is APAE001 (ATCC27853). Kind of assay: MIC broth microdilution, APAE001. It is filed as cell-based, P. aeruginosa. The conditions noted are these: Pseudomonas aeruginosa, ATCC27853, read-out: MIC APAE001, APAE001 (ATCC27853). The procedure, abridged: as §1
Assay [4] relates to APAE006 (strain of P. aeruginosa in which all efflux pumps are inactivated). Kind of assay: microbe, parasite or virus in culture. The conditions noted are these: Pseudomonas aeruginosa, read-out: MIC APAE006, APAE006, all efflux pumps inactivated. In kind it is cell-based. The procedure, abridged: (§2)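 Inocula prepared from 0.5 McFarland suspensions (final 3×10^5–7×10^5 CFU/mL) were added to 2-fold drug dilution series in cation-adjusted Mueller-Hinton broth. Plates stood 18-24 hours at 35° C. under ambient air.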

Assay [5] has as its system APAE006 in the presence of 8 micrograms per milliliter of polymyxin B nonapeptide. It is filed as cell-based, P. aeruginosa. The conditions noted are these: APAE006 with 8 micrograms per milliliter polymyxin B nonapeptide. The essentials:
as §2

The subject of assay [6] is AABA1060 (clinical isolate of Acinetobacter baumannii). Put plainly: MIC broth microdilution, AABA1060. In kind it is cell-based. The conditions noted are these: Acinetobacter baumannii, read-out: MIC AABA1060. The essentials: as §1
Assay [7] concerns ASAU001 (laboratory strain of S. aureus, ATCC29213). Kind of assay: MIC broth microdilution, ASAU001. The conditions noted are these: Staphylococcus aureus, ATCC29213, read-out: MIC ASAU001. It is filed as cell-based. The essentials: as §1
[8] abbreviates: ATCC25922, read-out: MIC AECO001.
Setting [9] is: ATCC25922, read-out: MIC AECO001 HSA AGP.

Converted amounts (≈) assume the structure as drawn. Read-outs that look alike come from different tables or passages of the source. A value given as a limit tells only on which side of the number the result lay.

Turning to `CC(C)(O)[C@H](NC(=O)c1ccc(C#CC#Cc2ccc(CN3CCOCC3)cc2)cc1)C(=O)NO` [Example 86-4], the MIC in assay [1] (setting [8]) is less than 2 µg/mL; in assay [1] (setting [9]), 2 to 16 µg/mL (≈ 4.21 to 33.6 µM); in assay [2], less than 2 µg/mL; in assay [3], 2 to 16 µg/mL (≈ 4.21 to 33.6 µM); in assay [4], less than 2 µg/mL; in assay [6], 2 to 16 µg/mL (≈ 4.21 to 33.6 µM). Besides, the MIC in assay [7] lay in the range of 16 to 64 µg/mL (≈ 33.6 to 135 µM). In addition, in assay [5], the “MIC APAE006 + PMBN” value was “A (MIC's of 2.0 μg/mL or less = A)”.

Turning to `C[C@@H](N)[C@H](NC(=O)c1ccc(C#CC#Cc2ccc(O)cc2)cc1)C(=O)NO` [Example 83-2], the MIC in assay [1] (setting [8]) was less than 2 µg/mL; in assay [1] (setting [9]) it was 16 to 64 µg/mL (≈ 42.4 to 170 µM); in assay [2], less than 2 µg/mL; in assay [3] it was less than 2 µg/mL; in assay [4] it was less than 2 µg/mL; in assay [6], 2 to 16 µg/mL (≈ 5.3 to 42.4 µM). Besides, the MIC in assay [7] lay in the range of 16 to 64 µg/mL (≈ 42.4 to 170 µM). In addition, the “MIC APAE006 + PMBN” value in assay [5] is reported as “A (MIC's of 2.0 μg/mL or less = A)”.

As for `CC(C)CCC#CC#Cc1ccc(C(=O)N[C@H](C(=O)NO)C(C)(C)O)cc1` [Example 91-18], the MIC in assay [1] (setting [8]) was less than 2 µg/mL; in assay [1] (setting [9]) it was less than 2 µg/mL; in assay [2] it was less than 2 µg/mL; in assay [3] it was 2 to 16 µg/mL (≈ 5.4 to 43.2 µM); in assay [4], 2 to 16 µg/mL (≈ 5.4 to 43.2 µM); in assay [6], 2 to 16 µg/mL (≈ 5.4 to 43.2 µM). Besides, the MIC in assay [7] was 16 to 64 µg/mL (≈ 43.2 to 173 µM). In addition, the “MIC APAE006 + PMBN” value in assay [5] was “A (MIC's of 2.0 μg/mL or less = A)”.

In the case of `C[C@H](C#CC#Cc1ccc(C(=O)N[C@H](C(=O)NO)[C@@H](C)N)cc1)N1CCOCC1` [Example 92-1, N-((2S,3R)-3-amino-1-(hydroxyamino)-1-oxobutan-2-yl)-4-((R)-5-morpholinohexa-1,3-diynyl)benzamide], the MIC in assay [1] (setting [8]) is 2 to 16 µg/mL (≈ 5.02 to 40.2 µM); in assay [1] (setting [9]), 16 to 64 µg/mL (≈ 40.2 to 161 µM); in assay [2], 2 to 16 µg/mL (≈ 5.02 to 40.2 µM); in assay [3], 2 to 16 µg/mL (≈ 5.02 to 40.2 µM); in assay [4] it was less than 2 µg/mL; in assay [6] it was 16 to 64 µg/mL (≈ 40.2 to 161 µM). In assay [7], the MIC is 16 to 64 µg/mL (≈ 40.2 to 161 µM). In addition, the “MIC APAE006 + PMBN” value in assay [5] is “A (MIC's of 2.0 μg/mL or less = A)”.

As for `O=C(CNC1CC1)NC[C@H](NC(=O)c1ccc(C#Cc2ccccc2)cc1)C(=O)NO` [Example 132-1, N—[(S)-2-(2-Cyclopropylamino-acetylamino)-1-hydroxycarbamoyl-ethyl]-4-phenylethynyl-benzamide], the MIC is less than 2 µg/mL in assay [1] (setting [8]); 2 to 16 µg/mL (≈ 4.76 to 38.1 µM) in assay [1] (setting [9]); less than 2 µg/mL in assay [2]; 2 to 16 µg/mL (≈ 4.76 to 38.1 µM) in assay [3]; less than 2 µg/mL in assay [4]; 2 to 16 µg/mL (≈ 4.76 to 38.1 µM) in assay [6]. Besides, in assay [7], the MIC is 16 to 64 µg/mL (≈ 38.1 to 152 µM). The “MIC APAE006 + PMBN” value in assay [5] is reported as “A (MIC's of 2.0 μg/mL or less = A)”.

As for `C[C@@H](N)[C@H](NC(=O)c1ccc(C#CC#CC(C)(C)O)cc1)C(=O)NO` [Example 91-30], the MIC in assay [1] (setting [8]) was 16 to 64 µg/mL (≈ 46.6 to 186 µM); in assay [1] (setting [9]), 16 to 64 µg/mL (≈ 46.6 to 186 µM); in assay [2], 2 to 16 µg/mL (≈ 5.82 to 46.6 µM); in assay [3], less than 2 µg/mL; in assay [4], less than 2 µg/mL; in assay [6] it was 16 to 64 µg/mL (≈ 46.6 to 186 µM). In addition, the MIC in assay [7] was in the range of 16 to 64 µg/mL (≈ 46.6 to 186 µM). Besides, the “MIC APAE006 + PMBN” value in assay [5] was “A (MIC's of 2.0 μg/mL or less = A)”.

With `C[C@@H](N)[C@H](NC(=O)c1ccc(C#CC2CC2)cc1)C(=O)NO` [Example 137-21], the MIC in assay [1] (setting [8]) was 16 to 64 µg/mL (≈ 53.1 to 212 µM); in assay [1] (setting [9]), 16 to 64 µg/mL (≈ 53.1 to 212 µM); in assay [2], 16 to 64 µg/mL (≈ 53.1 to 212 µM); in assay [3] it was 2 to 16 µg/mL (≈ 6.64 to 53.1 µM); in assay [4], less than 2 µg/mL; in assay [6], 2 to 16 µg/mL (≈ 6.64 to 53.1 µM). Besides, the MIC in assay [7] was 16 to 64 µg/mL (≈ 53.1 to 212 µM). Besides, the “MIC APAE006 + PMBN” value in assay [5] is “A (MIC's of 2.0 μg/mL or less = A)”.

In the case of `C[C@@H](O)[C@H](NC(=O)c1ccc(C#CC#CC2CC2)cc1)C(=O)NO` [Example 91-5], the MIC in assay [1] (setting [8]) was less than 2 µg/mL; in assay [1] (setting [9]), less than 2 µg/mL; in assay [2], less than 2 µg/mL; in assay [3] it was less than 2 µg/mL; in assay [4] it was less than 2 µg/mL; in assay [6], 2 to 16 µg/mL (≈ 6.13 to 49 µM). In assay [7], the MIC was in the range of 16 to 64 µg/mL (≈ 49 to 196 µM). Further, in assay [5], the “MIC APAE006 + PMBN” value is listed as “A (MIC's of 2.0 μg/mL or less = A)”.

With `CCCC#CC#Cc1ccc(C(=O)N[C@H](C(=O)NO)[C@@H](C)N)cc1` [Example 91-8], the MIC in assay [1] (setting [8]) is less than 2 µg/mL; in assay [1] (setting [9]), 2 to 16 µg/mL (≈ 6.11 to 48.9 µM); in assay [2], less than 2 µg/mL; in assay [3], less than 2 µg/mL; in assay [4] it was less than 2 µg/mL; in assay [6] it was 2 to 16 µg/mL (≈ 6.11 to 48.9 µM). Also, the MIC in assay [7] lay in the range of 2 to 16 µg/mL (≈ 6.11 to 48.9 µM). In assay [5], the “MIC APAE006 + PMBN” value is “A (MIC's of 2.0 μg/mL or less = A)”.
